Data as given in article PMC10681907, “2-Hydroxyglutarate modulates histone methylation at specific loci and alters gene expression via Rph1 inhibition” (Life Science Alliance, 2023).

Legend:
Assay in all cases: FDH-coupled fluorescent demethylase assay, initial velocities, Hill fit
Format in all cases: biochemical
Rph1 = biological target: T1, Rph1 (Saccharomyces cerevisiae, UniProt P39956)
T1 construct: full-length, N-terminal Strep(II) tag (pET51b+), expressed in E. coli BL21 Star (DE3), codon-optimized
T1 sequence (P39956 whole entry): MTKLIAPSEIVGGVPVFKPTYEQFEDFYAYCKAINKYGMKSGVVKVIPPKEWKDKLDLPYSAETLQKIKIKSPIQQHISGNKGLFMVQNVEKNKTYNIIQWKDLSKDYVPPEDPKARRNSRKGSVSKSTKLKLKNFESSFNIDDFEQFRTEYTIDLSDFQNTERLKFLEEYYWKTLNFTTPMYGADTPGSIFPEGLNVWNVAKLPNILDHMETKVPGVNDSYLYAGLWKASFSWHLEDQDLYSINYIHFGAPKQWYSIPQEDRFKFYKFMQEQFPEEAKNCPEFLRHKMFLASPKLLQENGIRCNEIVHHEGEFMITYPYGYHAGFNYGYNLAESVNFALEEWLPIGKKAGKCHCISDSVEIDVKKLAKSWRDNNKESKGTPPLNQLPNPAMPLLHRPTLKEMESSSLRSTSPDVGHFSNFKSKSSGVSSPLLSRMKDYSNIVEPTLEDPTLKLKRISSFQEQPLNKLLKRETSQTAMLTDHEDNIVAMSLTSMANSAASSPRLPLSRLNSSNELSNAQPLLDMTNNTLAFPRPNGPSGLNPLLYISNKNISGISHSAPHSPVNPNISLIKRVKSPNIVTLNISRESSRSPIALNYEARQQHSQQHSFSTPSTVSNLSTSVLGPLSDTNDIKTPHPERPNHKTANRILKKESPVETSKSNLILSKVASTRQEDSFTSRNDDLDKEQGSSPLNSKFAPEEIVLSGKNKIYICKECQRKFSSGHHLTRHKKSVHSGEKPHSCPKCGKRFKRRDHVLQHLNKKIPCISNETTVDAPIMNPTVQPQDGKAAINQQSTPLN

Jhd2 = biological target: T2, Jhd2 (Saccharomyces cerevisiae, UniProt P47156)
T2 construct: full-length, N-terminal Strep(II) tag (pET51b+), expressed in E. coli BL21 Star (DE3), codon-optimized
T2 sequence (P47156 1-728): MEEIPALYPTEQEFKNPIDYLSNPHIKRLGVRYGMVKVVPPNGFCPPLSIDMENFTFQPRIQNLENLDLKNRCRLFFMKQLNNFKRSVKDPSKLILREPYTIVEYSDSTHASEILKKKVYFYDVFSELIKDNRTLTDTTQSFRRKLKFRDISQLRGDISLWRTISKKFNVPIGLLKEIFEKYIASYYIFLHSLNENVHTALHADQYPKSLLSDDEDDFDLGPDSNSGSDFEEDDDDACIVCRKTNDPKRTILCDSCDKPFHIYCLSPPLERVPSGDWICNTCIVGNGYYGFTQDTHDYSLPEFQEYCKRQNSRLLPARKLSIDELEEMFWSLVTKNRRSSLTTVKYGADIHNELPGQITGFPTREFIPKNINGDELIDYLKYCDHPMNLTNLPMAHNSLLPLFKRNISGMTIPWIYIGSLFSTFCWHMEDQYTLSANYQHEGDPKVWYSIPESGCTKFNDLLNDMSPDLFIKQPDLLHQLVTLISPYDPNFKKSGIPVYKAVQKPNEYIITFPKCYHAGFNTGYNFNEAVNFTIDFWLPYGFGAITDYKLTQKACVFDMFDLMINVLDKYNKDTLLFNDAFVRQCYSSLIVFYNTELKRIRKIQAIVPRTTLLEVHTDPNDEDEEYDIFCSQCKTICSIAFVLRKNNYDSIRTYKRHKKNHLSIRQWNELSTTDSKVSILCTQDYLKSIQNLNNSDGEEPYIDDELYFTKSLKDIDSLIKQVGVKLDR

Gis1 = biological target: T3, Gis1 (Saccharomyces cerevisiae, UniProt Q03833)
T3 construct: full-length, N-terminal Strep(II) tag (pET51b+), expressed in E. coli BL21 Star (DE3), codon-optimized
T3 sequence (Q03833 1-894): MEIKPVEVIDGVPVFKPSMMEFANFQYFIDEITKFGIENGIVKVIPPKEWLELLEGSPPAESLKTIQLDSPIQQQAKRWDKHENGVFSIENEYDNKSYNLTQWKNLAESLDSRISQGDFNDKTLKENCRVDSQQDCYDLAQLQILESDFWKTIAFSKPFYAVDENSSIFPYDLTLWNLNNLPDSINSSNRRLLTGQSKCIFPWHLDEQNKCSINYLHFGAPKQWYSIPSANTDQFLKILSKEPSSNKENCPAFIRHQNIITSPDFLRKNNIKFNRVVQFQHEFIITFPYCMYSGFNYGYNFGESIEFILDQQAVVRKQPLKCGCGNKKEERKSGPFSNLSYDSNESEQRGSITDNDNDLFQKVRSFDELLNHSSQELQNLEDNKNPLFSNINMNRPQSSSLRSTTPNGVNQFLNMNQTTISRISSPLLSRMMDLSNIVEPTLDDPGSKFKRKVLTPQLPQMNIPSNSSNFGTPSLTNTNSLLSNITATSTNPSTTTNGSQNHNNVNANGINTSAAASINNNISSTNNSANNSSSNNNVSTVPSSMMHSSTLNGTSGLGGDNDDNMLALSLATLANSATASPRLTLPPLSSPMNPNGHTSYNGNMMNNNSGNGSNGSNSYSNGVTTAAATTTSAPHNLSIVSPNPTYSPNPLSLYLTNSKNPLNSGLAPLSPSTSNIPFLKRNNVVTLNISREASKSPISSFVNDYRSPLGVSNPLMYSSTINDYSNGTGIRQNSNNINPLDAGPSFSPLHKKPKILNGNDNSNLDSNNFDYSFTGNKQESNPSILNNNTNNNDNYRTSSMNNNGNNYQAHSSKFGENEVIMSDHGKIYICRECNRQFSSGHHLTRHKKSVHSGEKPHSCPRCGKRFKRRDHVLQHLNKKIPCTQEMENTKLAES

Jhd1 = biological target: T4, Jhd1 (Saccharomyces cerevisiae, UniProt P40034)
T4 construct: full-length, N-terminal Strep(II) tag (pET51b+), expressed in E. coli BL21 Star (DE3), codon-optimized
T4 sequence (P40034 1-492): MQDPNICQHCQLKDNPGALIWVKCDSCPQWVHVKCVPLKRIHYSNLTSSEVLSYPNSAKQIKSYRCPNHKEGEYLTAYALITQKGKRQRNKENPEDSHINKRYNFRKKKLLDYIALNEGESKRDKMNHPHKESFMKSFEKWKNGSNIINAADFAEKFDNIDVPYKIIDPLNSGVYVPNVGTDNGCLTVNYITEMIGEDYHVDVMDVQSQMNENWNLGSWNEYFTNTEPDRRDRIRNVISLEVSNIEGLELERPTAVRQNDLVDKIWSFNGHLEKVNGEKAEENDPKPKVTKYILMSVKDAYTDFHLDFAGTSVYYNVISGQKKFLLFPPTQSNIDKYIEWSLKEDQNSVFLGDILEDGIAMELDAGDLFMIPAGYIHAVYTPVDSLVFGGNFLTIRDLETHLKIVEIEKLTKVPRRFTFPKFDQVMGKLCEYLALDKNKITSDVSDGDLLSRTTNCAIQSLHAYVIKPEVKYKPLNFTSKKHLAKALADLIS

Question: With O=C(O)CC[C@@H](O)C(=O)O [2-HG] as the molecule, how does the IC50 (Rph1) read?
Answer: The IC50 was about 1300 µM.

Question: What about the IC50 (Jhd2) of the same molecule?
Answer: The IC50 was about 2200 µM.

Question: And the IC50 (Gis1)?
Answer: Its IC50 is about 3100 µM.

Question: And the IC50 (Jhd1)?
Answer: The IC50 was about 2000 µM.
